Laboratory results as given in patent US11639350B2, “Heteroaryldihydropyrimidine derivatives and methods of treating hepatitis B infections” (Janssen Pharmaceutica NV, priority 2018, dated 2023).

Legend:
HBV = HBV inhibitory activity: HBV DNA in the culture medium of HepG2.2.15 cells by q-PCR; type: cell-based; conditions: Hepatitis B virus, HepG2.2.15, 144 h, HepG2.2.15 cells, 6 days of compound treatment, HBV DNA in culture medium by q-PCR, highest concentration 10 μM; read-out: EC50
Experimental: (§1) HBV replication inhibition by the compounds of this invention as well as cytotoxicity determination was determined in cells infected or transfected with HBV, or cells with stably integrated HBV, such as HepG2.2.15 cells (Sells et al. 1987). The method used herein is as follows.
(§2) The HepG2.2.15 cells were seeded into 96-well plate in 2% FBS (Fetal bovine serum) culture medium at the density of 40,000 cells/well and 5,000 cells/well for HBV inhibitory activity and cytotoxicity determination, respectively. After seeding, the cell plates were incubated at 37° C., 5% CO2 overnight. The next day, medium containing compounds were added to treat the cells for 6 days with medium refreshed once in the middle of the treatment. Eight dose points with 3 folds dilution of each compound were adopted and the highest concentration of the compounds was 10 μM and 100 μM for HBV inhibitory activity and cytotoxicity determination, respectively.
The HBV DAN change in the cell culture medium induced by the compounds was measured by q-PCR (quantitative polymerase chain reaction) method. The HBV DNA in the culture medium was extracted using QIAamp 96 DNA Blood Kit according to the manual and then quantified by q-PCR using the primers and probe in the table below: […]
(§3) EC50 and CC50 values are calculated by the GraphPad Prism software and are averages where multiple measurements were made. EC50 values for the other exemplified compounds were either not measured or higher than 1 μM.

[1] = Cytotoxicity determination in HepG2.2.15 cells (CCK-8); type: cell-based; conditions: human, 6 days of compound treatment, CCK-8, highest concentration 100 μM
Experimental: as §1, §2
After 6 days of compounds treatment, 20 μl CCK-8 (Cell Counting Kit-8 (Tianjin Biolite company)) reagents were added to each well of cytotoxicity assay plates, the plate was incubated at 37° C., 5% CO2 for 2.5 hours and the absorbance at 450 nm wavelength was measured, at the same time the absorbance at 630 nm wavelength was read as reference.
as §3

| Structure (SMILES) | EC50 (HBV) [nM] | CC50 at 6 days [1] [µM] |
| --- | --- | --- |
| COC(=O)C1=C([C@H]2CC[C@H](S(=O)(=O)NC(C)C)CC2)NC(c2nccs2)=NC1c1ccc(F)c(F)c1Cl (single isomer, unassigned) [Compound 234D, (trans)-methyl 4-(2-chloro-3,4-difluorophenyl)-6-(4-(N-isopropylsulfamoyl)cyclohexyl)-2-(thiazol-2-yl)-1,4-dihydropyrimidine-5-carboxylate] | 13 | 4.2 |
| COC(=O)C1=C(C2CCOCC2)NC(c2nccs2)=NC1c1ccc(F)cc1Cl (centres unmarked) [Compound 51, Methyl 4-(2-chloro-4-fluorophenyl)-6-(tetrahydro-2H-pyran-4-yl)-2-(thiazol-2-yl)-1,4-dihydropyrimidine-5-carboxylate] | 112 | 9.9 |
| COC(=O)C1=C(C2CCC(N(C)C(C)=O)C2)NC(c2nccs2)=NC1c1cccc(F)c1Cl (centres unmarked) [Compound 170, Methyl 4-(2-chloro-3-fluorophenyl)-6-(3-(N-methylacetamido)cyclopentyl)-2-(thiazol-2-yl)-1,4-dihydropyrimidine-5-carboxylate] | 533 | 14.9 |
| COC(=O)C1=C([C@H]2CC[C@H](N(CC(=O)O)S(C)(=O)=O)CC2)NC(c2nccs2)=NC1c1ccc(F)cc1Cl (relative stereo) [Compound 139, 2-(N-(trans-4-(6-(2-chloro-4-fluorophenyl)-5-(methoxycarbonyl)-2-(thiazol-2-yl)-3,6-dihydropyrimidin-4-yl)cyclohexyl)methylsulfonamido)acetic Acid] | 112 | 75.6 |
| COC(=O)C1=C(C2CN(S(=O)(=O)C3CCC3)C2)NC(c2nccs2)=NC1c1ccc(F)cc1Cl (centres unmarked) [Compound 80, Methyl 4-(2-chloro-4-fluorophenyl)-6-(1-(cyclobutylsulfonyl)-azetidin-3-yl)-2-(thiazol-2-yl)-1,4-dihydropyrimidine-5-carboxylate] | 107 | 6.3 |
| COC(=O)C1=C([C@H]2CC[C@@H](S(=O)(=O)N(C)C)CC2)NC(c2nccs2)=NC1c1ccc(F)c(F)c1Cl (single isomer, unassigned) [Compound 233B, (cis)-Methyl 4-(2-chloro-3,4-difluorophenyl)-6-(4-(N,N-dimethylsulfamoyl)cyclohexyl)-2-(thiazol-2-yl)-1,4-dihydropyrimidine-5-carboxylate] | 56 | 6.3 |
| CCOC(=O)C1=C([C@@H]2CCN(S(C)(=O)=O)[C@@H](CO)C2)NC(c2nccs2)=NC1c1ccc(F)cc1Cl (single isomer, unassigned) [Compound 379C, ethyl 4-(2-chloro-4-fluorophenyl)-6-((trans)-2-(hydroxymethyl)-1-(methylsulfonyl)piperidin-4-yl)-2-(thiazol-2-yl)-1,4-dihydropyrimidine-5-carboxylate] | 55 | 32.6 |
| COC(=O)C1=C(C2CCN(S(=O)(=O)CC(O)CO)CC2)NC(c2nccs2)=NC1c1ccc(F)cc1Cl (single isomer, unassigned) [Compound 305A, Methyl 4-(2-chloro-4-fluorophenyl)-6-(1-((2,3-dihydroxypropyl)sulfonyl)piperidin-4-yl)-2-(thiazol-2-yl)-1,4-dihydropyrimidine-5-carboxylate] | 47 | 36.2 |
| COC(=O)C1=C(C2CCN(S(=O)(=O)C[C@H]3CC[C@H](C(=O)O)CC3)CC2)NC(c2nccs2)=NC1c1cccc(F)c1Cl (stereo partly drawn) [Compound 454, (trans)-4-(((4-(6-(2-Chloro-3-fluorophenyl)-5-(methoxycarbonyl)-2-(thiazol-2-yl)-3,6-dihydropyrimidin-4-yl)piperidin-1-yl)sulfonyl)methyl)-cyclohexanecarboxylic Acid] | 37 | 12 |
| CCOC(=O)C1=C(C2CCN(S(=O)(=O)[C@H]3C[C@@H](C(=O)O)C3)CC2)NC(c2nccs2)=NC1c1cccc(F)c1Br (relative stereo) [Compound 339D, (cis)-3-((4-(6-(2-Bromo-3-fluorophenyl)-5-(ethoxycarbonyl)-2-(thiazol-2-yl)-3,6-dihydropyrimidin-4-yl)piperidin-1-yl)sulfonyl)cyclobutanecarboxylic Acid] | 99 | 32.7 |
| COCCNS(=O)(=O)N1CCC(C2=C(C(=O)OC)C(c3ccc(F)cc3Cl)N=C(c3nccs3)N2)CC1 (single isomer, unassigned) [Compound 268B, Methyl 4-(2-chloro-4-fluorophenyl)-6-(1-(N-(2-methoxyethyl)-sulfamoyl)piperidin-4-yl)-2-(thiazol-2-yl)-1,4-dihydropyrimidine-5-carboxylate] | 59 | 30.7 |
| COC(=O)C1=C(C2CCN(S(=O)(=O)[C@H]3CC[C@@H](C(=O)O)CC3)CC2)NC(c2nccs2)=NC1c1ccc(F)cc1Cl (relative stereo) [Compound 313A, (cis)-4-((4-(6-(2-Chloro-4-fluorophenyl)-5-(methoxycarbonyl)-2-(thiazol-2-yl)-3,6-dihydropyrimidin-4-yl)piperidin-1-yl)sulfonyl)-cyclohexanecarboxylic Acid] | 58 | 35 |
| COC(=O)C1=C([C@@H]2CO[C@@H](C(=O)O)C2)NC(c2nccs2)=N[C@H]1c1cccc(F)c1Cl [Compound 212A] | 1010 | > 100 |
| COC(=O)C1=C(C2CCC(S(=O)(=O)N3CCC3)CC2)NC(c2nccs2)=NC1c1ccc(F)c(F)c1Cl (centres unmarked) [Compound 430, methyl 6-(4-(azetidin-1-ylsulfonyl)cyclohexyl)-4-(2-chloro-3,4-difluorophenyl)-2-(thiazol-2-yl)-1,4-dihydropyrimidine-5-carboxylate] | 15 | 15.1 |
| CCOC(=O)C1=C(C2CCN(S(=O)(=O)C3CC(C)(C(=O)O)C3)CC2)NC(c2nccs2)=NC1c1ccc(F)cc1C (stereo not drawn) [Compound 420A, (trans)-3-((4-(5-(Ethoxycarbonyl)-6-(4-fluoro-2-methylphenyl)-2-(thiazol-2-yl)-3,6-dihydropyrimidin-4-yl)piperidin-1-yl)sulfonyl)-1-methylcyclobutanecarboxylic Acid] | 76 | 20.8 |
| COC(=O)C1=C(C2CCN(S(=O)(=O)CC(C)(C)C(=O)O)CC2)NC(c2nccs2)=NC1c1ccc(F)cc1Cl (centres unmarked) [Compound 223, 3-((4-(6-(2-Chloro-4-fluorophenyl)-5-(methoxycarbonyl)-2-(thiazol-2-yl)-3,6-dihydropyrimidin-4-yl)piperidin-1-yl)sulfonyl)-2,2-dimethylpropanoic Acid] | 145 | 50 |
| COCCOCCOCCS(=O)(=O)NC12CC(C3=C(C(=O)OC)C(c4ccc(F)cc4Cl)N=C(c4nccs4)N3)(C1)C2 (centres unmarked) [Compound 440b, Methyl 4-(2-chloro-4-fluorophenyl)-6-(3-(2-(2-(2-methoxyethoxy)ethoxy)ethylsulfonamido)bicyclo[1.1.1]pentan-1-yl)-2-(thiazol-2-yl)-1,4-dihydropyrimidine-5-carboxylate] | 13 | 82.9 |
| COC(=O)C1=C([C@H]2CC[C@H](C(=O)O)CC2)NC(c2nccs2)=NC1c1cccc(F)c1Br (some centres unmarked) [Compound 152A] | 92 | 39.5 |
| CCOC(=O)C1=C([C@H]2CC[C@H](C(=O)O)CC2)NC(c2nccs2)=NC1c1ccccc1Br (stereo partly drawn) [Compound 148A, (trans)-4-(6-(2-bromophenyl)-5-(ethoxycarbonyl)-2-(thiazol-2-yl)-3,6-dihydropyrimidin-4-yl)cyclohexane-1-carboxylic Acid] | 97 | 29.4 |
| COC(=O)C1=C([C@@H]2CCN(S(=O)(=O)CC(F)(F)F)C2)NC(c2nccs2)=NC1c1ccc(F)cc1Cl (stereo partly drawn) [Compound 364, Methyl 4-(2-chloro-4-fluorophenyl)-2-(thiazol-2-yl)-6-((R)-1-((2,2,2-trifluoroethyl)sulfonyl)pyrrolidin-3-yl)-1,4-dihydropyrimidine-5-carboxylate] | 208 | > 100 |
| COC(=O)C1=C([C@H]2C[C@H](NC(C)=O)C2)NC(c2nccs2)=NC1c1ccc(F)cc1Cl (single isomer, unassigned) [Compound 89R, trans-Methyl 6-(3-acetamidocyclobutyl)-4-(2-chloro-4-fluoro-phenyl)-2-(thiazol-2-yl)-1,4-dihydropyrimidine-5-carboxylate] | 112 | 17.2 |
| CCOC(=O)C1=C(C2CCN(S(C)(=O)=O)CC2)NC(c2ncc(F)cc2F)=NC1c1ccc(F)cc1Cl (single isomer, unassigned) [Compound 56A, Ethyl 4-(2-chloro-4-fluorophenyl)-2-(3,5-difluoropyridin-2-yl)-6-(1-(methylsulfonyl)piperidin-4-yl)-1,4-dihydropyrimidine-5-carboxylate] | 513 | > 10 |
